# Results as given in US20210322331A1, “NANOCAPSULES FOR THE DELIVERY OF CELL MODULATING AGENTS” (CSL BEHRING LLC, priority 2018, published 2021).
# Legend:
# Format in all cases: cell-based
# [1] = tested on: CEM cells; test: Negative selection with MTX or MPA on transduced or transfected CEM cells; conditions: for GFP-population of transduced cells (HPRT knockdown): FIG. 10A, CEM experiment; for HPRT knockout population of CEM cells: FIG. 10B
# Protocol: FIGS. 10A and 10B illustrate the effect of negative selection with 300 nM of MTX, 1 uM and 10 uM of MPA on CEM cells transduced with sh7-GFP lentiviral vector or transfected with RNP targeting HPRT1 nanocapsules.
# (§1) Transduced or transfected CEM cells (such as those from Example 6) were cultured with or without MTX from day 0 to day 14. The medium was refreshed every 3 to 4 days. GFP was analyzed on flow machine and InDel % was analyzed by T7E1 assay.
# [2] = tested on: K562 cells; test: Negative selection with MTX on transduced or transfected K562 cells; conditions: 0.3 uM of MTX
# Protocol: FIGS. 9A and 9B illustrate the effect of negative selection with 300 nM of MTX on K562 cells transduced with sh7-GFP lentiviral vector or transfected with RNP targeting HPRT1 nanocapsules.
# as §1, with “K562” for “CEM”, “5)” for “6)”, “assay. […] FIG. 9B illustrated that the transfected K562 cells were eliminated under treatment with 0.3 uM of MTX at a faster pace as compared with the HPRT-KD population.” for “assay.”
# [3] = tested on: CCR5; test: CCR5 staining with 6-TG selection in mPB CD34+ cells; conditions: 100 nM of 6TG day 4 to 14, flow at day 14; without 6TG 44.9%
# Protocol: Assay protocols and results for CCR5 staining with 6-TG selection in sh734-KI mPB CD34+ cells (i.e. Mobilized CD34+ cells cultured with TPO/SCF/FLT3/IL3 and Knock-out of CCR5 and knock-in of sh734 in CD34+ cells)
# (§2) Nanocapsules were formulated to contain CRISPR/Cas9/gRNAR targeting CCR5/mi-sh734 expression cassette HDR template CRISPR machinery complex (see methods). Cd34+ cells were thawed and pre-stimulated in x-vivo 10 with 100 ng/mL of TPO/SCF/FLT4/IL3 for overnight. Then 500 ng of Cas9-CCR5-gRNA-3G-mi-sh734 nanocapsules were added into 5×10^4 cells per well and 100 nM of 6TG was added into culture media from day 4 to 14. The flow analysis was carried out at day 14.
# as §2, with “6-TG selection was examined using VCN/InDel data. mPB CD34+ were transfected/transduced as indicated in FIG. 8A Nanocapsules” for “Nanocapsules”, “prestimulated” for “pre-stimulated”, “X-vivo” for “x-vivo”
smiles,measurement,setting,value
"CN(Cc1cnc2nc(N)nc(N)c2n1)c1ccc(C(=O)N[C@@H](CCC(=O)O)C(=O)O)cc1 [MTX, methotrexate]",GFP-population of transduced cells (HPRT knockdown),[1]; 0.3 uM of MTX,decreased
same,HPRT knockout population of CEM cells,[1]; 0.3 uM of MTX,eliminated at a faster pace
same,GFP-population of transduced K562 cells (HPRT knockdown),"[2]; FIG. 9A, day 0 to day 14",decreased
same,transfected (HPRT knockout) K562 cells,"[2]; FIG. 9B, compared with the HPRT-KD population",eliminated
"Nc1nc2nc[nH]c2c(=S)[nH]1 [6TG, 6-thioguanine]",CCR5+ of CD34+ cells with 6TG treatment (no nanocapsule),[3],43.4%
"COc1c(C)c2c(c(O)c1C/C=C(\C)CCC(=O)O)C(=O)OC2 [MPA, mycophenolic acid]",GFP-population of transduced cells (HPRT knockdown),[1]; 1 uM of MPA,decreased
same,GFP-population of transduced cells (HPRT knockdown),[1]; 10 uM of MPA,decreased
same,HPRT knockout population of CEM cells,[1]; 1 uM of MPA,eliminated at a faster pace
same,HPRT knockout population of CEM cells,[1]; 10 uM of MPA,eliminated at a faster pace
